Source: publication PMC3863970 (Nature Communications, 2013)
Entries after “also recorded” stand apart in the source; their conditions may differ.

What was measured:
rSH/1:AH/1-NA virus = system: rSH/1:AH/1-NA virus; design: species or system influenza A(H7N9) virus; conditions: in vivo
rSH/1 virus = system: rSH/1 virus; design: species or system influenza A(H7N9) virus; conditions: in vivo

SMILES | reduction in viral lung titres (rSH/1:AH/1-NA virus; po) [log] | effect on viral lung titres (rSH/1 virus; po) | viral lung titres compared with mice treated with vehicle only (rSH/1:AH/1-NA virus) | viral lung titres compared with mice treated with vehicle only (rSH/1 virus)
CCOC(=O)C1=C[C@@H](OC(CC)CC)[C@H](NC(C)=O)[C@@H](N)C1 [Oseltamivir, oseltamivir] | 1 | no effect; also recorded: does not suppress H7N9 virus replication |  | 
CC(=O)N[C@H]1[C@H]([C@H](O)[C@H](O)CO)OC(C(=O)O)=C[C@@H]1N=C(N)N [Zanamivir, zanamivir] |  |  | significantly reduced | significantly reduced
